# From US7723325B2, “5-amido-indole-2-carboxamide derivatives” (Hoffman-La Roche Inc., priority 2006, dated 2010)
# Target: T1, histamine 3 receptor (H3R) (Homo sapiens, UniProt Q9Y5N1)
# T1 construct: expressed in transfected cells; host or cells: CHO
# Experiment: Binding assay with 3H-(R)α-Methylhistamine (competition binding, HR3-CHO membranes)
# Settings: competition binding vs 3H(R)α-Methylhistamine (1 nM), membrane of the human HR3-CHO cell line; Ki calculated from IC50 (Cheng-Prusoff)
# Protocol: Binding Assay with ^3H—(R)α-Methylhistamine
# Saturation binding experiments were performed using HR3-CHO membranes prepared as described in Takahashi, K, Tokita, S., Kotani, H. (2003) J. Pharmacol. Exp. Therapeutics 307, 213-218.
# An appropriate amount of membrane (60 to 80 μg protein/well) was incubated with increasing concentrations of ^3H(R)α-Methylhistamine di-hydrochloride (0.10 to 10 nM). Non specific binding was determined using a 200 fold excess of cold (R)α-Methylhistamine dihydrobromide (500 nM final concentration). The incubation was carried out at room temperature (in deep-well plates shaking for three hours). The final volume in each well was 250 μl. The incubation was followed by rapid filtration on GF/B filters (pre-soaked with 100 μl of 0.5% PEI in Tris 50 mM shaking at 200 rpm for two hours). The filtration was made using a cell-harvester and the filter plates were then washed five times with ice cold washing buffer containing 0.5 M NaCl. After harvesting, the plates were dried at 55° C. for 60 min, then we added scintillation fluid (Microscint 40, 40 microl in each well) and the amount of radioactivity on the filter was determined in Packard top-counter after shaking the plates for two hours at 200 rpm at room temperature.
# Binding Buffer: 50 mM Tris-HCl pH 7.4 and 5 mM MgCl2x6H2O pH 7.4. Washing Buffer: 50 mM Tris-HCl pH 7.4 and 5 mM MgCl2x6H2O and 0.5 M NaCl pH 7.4.
# Indirect measurement of affinity of H3R inverse agonists: twelve increasing concentrations (ranging from 10 μM to 0.3 nM) of the selected compounds were always tested in competition binding experiments using membrane of the human HR3-CHO cell line. An appropriate amount of protein, e.g. approximately 500 cpm binding of RAMH at Kd, were incubated for 1 hour at room temperature in 250 μl final volume in 96-well plates in presence of ^3H(R)α-Methylhistamine (1 nM final concentration=Kd). Non-specific binding was determined using a 200 fold excess of cold (R)α-Methylhistamine dihydrobromide.
# All compounds were tested at a single concentration in duplicates. […] Ki's were calculated from IC50 based on Cheng-Prusoff equation (Cheng, Y, Prusoff, W H (1973) Biochem Pharmacol 22, 3099-3108).
# T1 sequence (Q9Y5N1 whole entry): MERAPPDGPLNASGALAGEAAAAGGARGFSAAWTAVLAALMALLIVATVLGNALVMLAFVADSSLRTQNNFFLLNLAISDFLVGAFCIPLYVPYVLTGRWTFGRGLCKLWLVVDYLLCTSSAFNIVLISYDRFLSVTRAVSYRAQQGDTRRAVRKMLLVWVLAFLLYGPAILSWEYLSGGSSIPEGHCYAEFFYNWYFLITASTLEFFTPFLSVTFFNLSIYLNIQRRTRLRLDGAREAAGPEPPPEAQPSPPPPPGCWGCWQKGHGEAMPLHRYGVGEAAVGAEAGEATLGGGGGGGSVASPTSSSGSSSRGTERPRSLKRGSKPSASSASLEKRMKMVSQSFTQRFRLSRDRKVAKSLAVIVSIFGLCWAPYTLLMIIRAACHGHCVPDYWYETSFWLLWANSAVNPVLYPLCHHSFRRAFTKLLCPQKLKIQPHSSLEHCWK
row,SMILES,Ki [µM]
1,"CC(C)N1CCN(C(=O)c2ccc3c(c2)cc(C(=O)N2CCS(=O)(=O)CC2)n3-c2ccc(S(C)(=O)=O)cc2)CC1 [Example 221, (1,1-Dioxothiomorpholin-4-yl)-[5-(4-isopropyl-piperazine-1-carbonyl)-1-(4-methanesulfonyl-phenyl)-1H-indol-2-yl]-methanone]",0.0226
2,"CC(C)N1CCN(C(=O)c2ccc3c(c2)cc(C(=O)N2CCS(=O)(=O)CC2)n3-c2cccc(Cl)c2)CC1 [Example 97, [1-(3-Chloro-phenyl)-5-(4-isopropyl-piperazine-1-carbonyl)-1H-indol-2-yl]-(1,1-dioxo-thiomorpholin-4-yl)-methanone]",0.0134
3,"CC(C)N1CCN(C(=O)c2ccc3c(c2)cc(C(=O)N2CCC(F)(F)CC2)n3C2CCC2)CC1 [Example 150, [1-Cyclobutyl-2-(4,4-difluoro-piperidine-1-carbonyl)-1H-indol-5-yl]-(4-isopropyl-piperazin-1-yl)-methanone]",0.0252

# The next lines start with the values.
row,Ki [µM],SMILES
1,0.041,"CC(C)N1CCCN(C(=O)c2ccc3[nH]c(C(=O)N4CCS(=O)(=O)CC4)cc3c2)CC1 [Example 245, (1,1-Dioxo-thiomorpholin-4-yl)-[5-(4-isopropyl-[1,4]diazepane-1-carbonyl)-1H-indol-2-yl]-methanone]"
2,0.0287,"O=C(c1ccc2[nH]c(C(=O)N3CCCCC3)cc2c1)N1CCN(C2CCCC2)CC1 [Example 5, [5-(4-Cyclopentyl-piperazine-1-carbonyl)-1H-indol-2-yl]-piperidin-1-yl-methanone]"
3,0.0356,"COc1cccc(-n2c(C(=O)N3CCC(F)(F)CC3)cc3cc(C(=O)N4CCN(C5CCCC5)CC4)ccc32)c1 [Example 84, [5-(4-Cyclopentyl-piperazine-1-carbonyl)-1-(3-methoxy-phenyl)-1H-indol-2-yl]-(4,4-difluoro-piperidin-1-yl)-methanone]"
